As a reminder, the MIC is the lowest concentration found to suppress growth. Usually Ki stands for the equilibrium dissociation constant of an inhibitor or competing ligand from its target. As usually defined, the inhibition is the drop in the measured response relative to a control, in per cent.

Here are results for 22 molecules from ChEMBL document CHEMBL3045259, “Synthesis, molecular docking studies, and in vitro screening of sulfanilamide-thiourea hybrids as antimicrobial and urease inhibitors” (Med Chem Res, 2013).

Values after ≈ are worked out from the molar mass of the structure shown. Active and inactive are the calls of the source. The calls are words filed in the database; no cut-off is given here.

One assay has as its system Shigella flexneri. Description: Antibacterial activity against Shigella flexneri assessed as growth inhibition after 24 hr by NCCLS broth micro-dilution method. It is filed as functional.
A further assay addresses Urease (Canavalia ensiformis, UniProt P07374). Description: (§1) Inhibition of Canavalia ensiformis (jack bean) urease assessed as release of ammonia after 30 min by indophenol method.
The subject of another assay is Staphylococcus aureus. As to the kind of experiment: Antibacterial activity against Staphylococcus aureus assessed as growth inhibition after 24 hr by NCCLS broth micro-dilution method. It is filed as functional.
Another assay relates to Escherichia coli. As to the kind of experiment: Antibacterial activity against Escherichia coli assessed as growth inhibition after 24 hr by NCCLS broth micro-dilution method. The assay is classed as functional. For orientation: Broth dilution looks for growth in wells or tubes with falling amounts of substance.
The next assay relates to Bacillus subtilis. Description: Antibacterial activity against Bacillus subtilis assessed as growth inhibition after 24 hr by NCCLS broth micro-dilution method. It is filed as functional.
In assay [1] the target is Urease (Canavalia ensiformis) (UniProt P07374). The assay is described as §1.
The target is the same in assay [2]. Description: Ratio of thiourea Ki to compound Ki for Canavalia ensiformis (jack bean) urease.
In another assay the test system is Aspergillus. Description: Antifungal activity against Aspergillus […] assessed as inhibition of fungal hyphae extension after 24 to 48 hr by agar well diffusion method. It is filed as functional. In general terms: Agar diffusion results depend on both activity and mobility in agar.
A further assay deals with Aspergillus niger. Description: Antifungal activity against Aspergillus niger assessed as inhibition of fungal hyphae extension after 24 to 48 hr by agar well diffusion method. The assay is classed as functional.
Another assay has as its system Aspergillus flavus. As to the kind of experiment: Antifungal activity against Aspergillus flavus assessed as inhibition of fungal hyphae extension after 24 to 48 hr by agar well diffusion method. The assay is classed as functional.

Urease, sequence (P07374 whole entry): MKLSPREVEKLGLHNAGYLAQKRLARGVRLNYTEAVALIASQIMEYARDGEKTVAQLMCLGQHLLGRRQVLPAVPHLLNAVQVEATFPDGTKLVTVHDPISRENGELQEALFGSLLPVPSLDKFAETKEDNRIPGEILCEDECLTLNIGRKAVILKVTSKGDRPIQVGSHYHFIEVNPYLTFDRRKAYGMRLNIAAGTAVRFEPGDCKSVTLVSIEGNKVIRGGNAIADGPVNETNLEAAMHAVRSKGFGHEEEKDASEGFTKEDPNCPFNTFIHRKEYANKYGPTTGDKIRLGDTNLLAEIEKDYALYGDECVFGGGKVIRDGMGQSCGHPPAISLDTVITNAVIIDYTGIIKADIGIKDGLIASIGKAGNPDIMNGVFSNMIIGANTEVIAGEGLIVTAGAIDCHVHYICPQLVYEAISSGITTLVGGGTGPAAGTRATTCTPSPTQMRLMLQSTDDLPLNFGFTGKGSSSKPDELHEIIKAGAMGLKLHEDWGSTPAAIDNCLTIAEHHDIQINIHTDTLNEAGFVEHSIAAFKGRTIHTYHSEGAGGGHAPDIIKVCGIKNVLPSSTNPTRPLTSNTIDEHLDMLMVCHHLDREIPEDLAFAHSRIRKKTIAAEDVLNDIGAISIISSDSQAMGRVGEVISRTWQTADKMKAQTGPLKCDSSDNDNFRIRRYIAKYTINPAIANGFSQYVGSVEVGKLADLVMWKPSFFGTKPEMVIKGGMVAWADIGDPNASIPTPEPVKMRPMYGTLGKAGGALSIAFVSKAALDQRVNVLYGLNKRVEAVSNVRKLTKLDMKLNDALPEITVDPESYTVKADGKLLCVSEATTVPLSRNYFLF
Urease (Canavalia ensiformis), sequence (P07374 whole entry, looked up): as the sequence (P07374 whole entry) above

As to `NS(=O)(=O)c1ccc(NC(=S)NC(=O)c2cccc(Cl)c2)cc1`, the minimal inhibitory concentration (MIC) in the assay on Shigella flexneri, in the assay on Staphylococcus aureus, in the assay on Escherichia coli and with Bacillus subtilis was 0.156 µg/mL (≈ 0.422 µM) throughout. For the same molecule, the inhibition constant (Ki) at Urease stood at 1500 nM.
In the case of `Cc1ccccc1C(=O)NC(=S)Nc1ccc(S(N)(=O)=O)cc1`, the MIC is 0.313 µg/mL (≈ 0.896 µM) in the assay on Shigella flexneri, 0.625 µg/mL (≈ 1.79 µM) in the assay on Staphylococcus aureus, 0.313 µg/mL (≈ 0.896 µM) in the assay on Escherichia coli and 0.625 µg/mL (≈ 1.79 µM) in the assay with Bacillus subtilis. Also, in assay [1], the inhibition is 53%.
With `NS(=O)(=O)c1ccc(NC(=S)NC(=O)c2ccc(Cl)cc2)cc1`, the MIC with Shigella flexneri stood at 0.313 µg/mL (≈ 0.846 µM); in the assay on Staphylococcus aureus, 0.156 µg/mL (≈ 0.422 µM); in the assay on Escherichia coli it was 0.313 µg/mL (≈ 0.846 µM); in the assay with Bacillus subtilis, 0.156 µg/mL (≈ 0.422 µM). Moreover, the Ki at Urease came out at 200 nM. In addition, the Ratio Ki in assay [2] is 100.
For `O=C(O)c1cn(C2CC2)c2cc(N3CCNCC3)c(F)cc2c1=O` [CIPROFLOXACIN], the MIC in the assay with Shigella flexneri is 0.313 µg/mL (≈ 0.945 µM); in the assay on Staphylococcus aureus, 0.156 µg/mL (≈ 0.471 µM); in the assay on Escherichia coli it was 0.156 µg/mL (≈ 0.471 µM); in the assay with Bacillus subtilis, 0.625 µg/mL (≈ 1.89 µM).
For the molecule `NS(=O)(=O)c1ccc(NC(=S)NC(=O)c2ccc(Cl)cc2Cl)cc1`, the inhibition result in the assay with Aspergillus and with Aspergillus flavus was “inactive” each time. The minimal inhibitory concentration (MIC) in the assay with Shigella flexneri, with Staphylococcus aureus, in the assay with Escherichia coli and in the assay on Bacillus subtilis was 0.313 µg/mL (≈ 0.774 µM) in each case. Further, on Urease, the Ki came out at 1910 nM. In addition, the “inhibition zone (IZ)” value with Aspergillus niger amounted to 0.8 mm.
For `CCC(CC(=O)NC(=S)Nc1ccc(S(N)(=O)=O)cc1)c1ccccc1` (stereo not drawn), the MIC in the assay with Shigella flexneri came to 0.313 µg/mL (≈ 0.799 µM); in the assay with Staphylococcus aureus it was 0.625 µg/mL (≈ 1.6 µM); in the assay on Escherichia coli it was 1.25 µg/mL (≈ 3.19 µM); in the assay with Bacillus subtilis, 0.313 µg/mL (≈ 0.799 µM). Moreover, at Urease, the Ki was found to be 1230 nM.
For the molecule `NS(=O)(=O)c1ccc(NC(=S)NC(=O)c2cccc(F)c2)cc1`, the inhibition result in the assay with Aspergillus is “inactive”. Further, the minimal inhibitory concentration (MIC) with Shigella flexneri came out at 0.156 µg/mL (≈ 0.441 µM); in the assay on Staphylococcus aureus it was 0.313 µg/mL (≈ 0.886 µM); in the assay with Escherichia coli, 0.313 µg/mL (≈ 0.886 µM); with Bacillus subtilis, 0.313 µg/mL (≈ 0.886 µM). For the same molecule, the Ki on Urease was 1490 nM. Moreover, the entries for the “inhibition zone (IZ)” value with Aspergillus niger and with Aspergillus flavus were 2.4 mm and 2.8 mm, respectively.
On to `NS(=O)(=O)c1ccc(NC(=S)NC(=O)Cc2ccccc2)cc1`, for which the MIC in the assay with Shigella flexneri, in the assay with Staphylococcus aureus, in the assay on Escherichia coli and in the assay on Bacillus subtilis was 0.313 µg/mL (≈ 0.896 µM) throughout. For the same molecule, the inhibitory constant (Ki) at Urease was 1600 nM.
For `NC(N)=S` [THIOUREA], the inhibition constant Ki at Urease was 23000 nM.
On to `COc1ccc(C(=O)NC(=S)Nc2ccc(S(N)(=O)=O)cc2)c(OC)c1OC`, for which the MIC amounted to 0.313 µg/mL (≈ 0.736 µM) with Shigella flexneri, 0.156 µg/mL (≈ 0.367 µM) with Staphylococcus aureus, 0.313 µg/mL (≈ 0.736 µM) in the assay with Escherichia coli and 0.156 µg/mL (≈ 0.367 µM) in the assay on Bacillus subtilis. For the same molecule, the inhibitory constant (Ki) on Urease came to 1340 nM.
As for `NS(=O)(=O)c1ccc(NC(=S)NC(=O)c2ccco2)cc1`, the minimum inhibitory concentration (MIC) with Shigella flexneri is 0.313 µg/mL (≈ 0.962 µM); in the assay on Staphylococcus aureus, 0.625 µg/mL (≈ 1.92 µM); with Escherichia coli, 0.313 µg/mL (≈ 0.962 µM); with Bacillus subtilis it was 0.625 µg/mL (≈ 1.92 µM). Also, the Ki at Urease was found to be 1140 nM.
As for `COc1cccc(C(=O)NC(=S)Nc2ccc(S(N)(=O)=O)cc2)c1`, the MIC in the assay with Shigella flexneri, with Staphylococcus aureus, in the assay with Escherichia coli and with Bacillus subtilis was 0.313 µg/mL (≈ 0.857 µM) in each case. In addition, the Ki at Urease was 650 nM.
As to `Cc1cccc(C(=O)NC(=S)Nc2ccc(S(N)(=O)=O)cc2)c1`, the MIC in the assay with Shigella flexneri was 0.313 µg/mL (≈ 0.896 µM); in the assay with Staphylococcus aureus, 0.625 µg/mL (≈ 1.79 µM); with Escherichia coli, 1.25 µg/mL (≈ 3.58 µM); with Bacillus subtilis, 0.313 µg/mL (≈ 0.896 µM). In addition, the inhibition constant Ki on Urease is 890 nM.
Take `NS(=O)(=O)c1ccc(NC(=S)NC(=O)c2cccc([N+](=O)[O-])c2)cc1`: the minimum inhibitory concentration (MIC) in the assay on Shigella flexneri, in the assay with Staphylococcus aureus, in the assay on Escherichia coli and in the assay on Bacillus subtilis was 0.313 µg/mL (≈ 0.823 µM) throughout. The Ki on Urease turned out to be 450 nM.
For `COc1cc(OC)cc(C(=O)NC(=S)Nc2ccc(S(N)(=O)=O)cc2)c1`, the “inhibition zone (IZ)” value came out at 2.7 mm with Aspergillus, 1.5 mm in the assay on Aspergillus niger and 1.9 mm in the assay with Aspergillus flavus. Further, the minimum inhibitory concentration (MIC) in the assay with Shigella flexneri, in the assay on Staphylococcus aureus, with Escherichia coli and in the assay with Bacillus subtilis was 0.313 µg/mL (≈ 0.791 µM) in each case. Further, at Urease, the inhibition constant (Ki) was 1210 nM.
Take `CN(C/C=C/C#CC(C)(C)C)Cc1cccc2ccccc12` [TERBINAFINE]: the “inhibition zone (IZ)” value with Aspergillus was found to be 5.2 mm; with Aspergillus niger, 5.3 mm; in the assay with Aspergillus flavus, 5.7 mm.
Turning to `CCCCCCCCCCCC(=O)NC(=S)Nc1ccc(S(N)(=O)=O)cc1`, the “inhibition zone (IZ)” value was found to be 4.9 mm with Aspergillus, 4.6 mm in the assay with Aspergillus niger and 5.1 mm in the assay with Aspergillus flavus. The MIC in the assay with Shigella flexneri, in the assay on Staphylococcus aureus, in the assay with Escherichia coli and in the assay with Bacillus subtilis was 0.313 µg/mL (≈ 0.757 µM) throughout. The Ki on Urease turned out to be 1300 nM.
Take `NS(=O)(=O)c1ccc(NC(=S)NC(=O)c2ccc(Cl)cc2[N+](=O)[O-])cc1`: the minimum inhibitory concentration (MIC) in the assay with Shigella flexneri, with Staphylococcus aureus, in the assay on Escherichia coli and in the assay with Bacillus subtilis was 0.156 µg/mL (≈ 0.376 µM) each time. On Urease, the inhibitory constant (Ki) was 5590 nM.
For the molecule `NS(=O)(=O)c1ccc(NC(=S)NC(=O)c2cc([N+](=O)[O-])ccc2Cl)cc1`, the inhibition result with Aspergillus was “inactive”. The MIC with Shigella flexneri was determined as 0.313 µg/mL (≈ 0.754 µM); in the assay on Staphylococcus aureus it was 0.156 µg/mL (≈ 0.376 µM); in the assay on Escherichia coli, 0.313 µg/mL (≈ 0.754 µM); with Bacillus subtilis, 0.156 µg/mL (≈ 0.376 µM). Also, at Urease, the inhibition constant (Ki) came out at 440 nM. In [2], the Ratio Ki was 50. Besides, the “inhibition zone (IZ)” value amounted to 1.6 mm with Aspergillus niger and 2.1 mm in the assay with Aspergillus flavus.
Take `COc1cccc(C(=O)NC(=S)Nc2ccc(S(N)(=O)=O)cc2)c1OC`: in the assay on Aspergillus, the “inhibition zone (IZ)” value is given as 0.9 mm. Moreover, the MIC in the assay with Shigella flexneri worked out at 0.156 µg/mL (≈ 0.394 µM); with Staphylococcus aureus, 0.313 µg/mL (≈ 0.791 µM); in the assay on Escherichia coli, 0.313 µg/mL (≈ 0.791 µM); with Bacillus subtilis, 0.313 µg/mL (≈ 0.791 µM). Further, at Urease, the Ki came out at 820 nM. Moreover, the inhibition entry in the assay with Aspergillus niger and with Aspergillus flavus was “inactive” each time.
For the molecule `Cc1ccc(C(=O)NC(=S)Nc2ccc(S(N)(=O)=O)cc2)cc1`, the MIC in the assay with Shigella flexneri was 0.156 µg/mL (≈ 0.446 µM); in the assay on Staphylococcus aureus, 0.313 µg/mL (≈ 0.896 µM); in the assay on Escherichia coli, 0.313 µg/mL (≈ 0.896 µM); in the assay with Bacillus subtilis, 0.313 µg/mL (≈ 0.896 µM). For the same molecule, at Urease, the Ki stood at 4320 nM.
Regarding `NS(=O)(=O)c1ccc(NC(=S)NC(=O)c2ccc([N+](=O)[O-])cc2)cc1`, the MIC in the assay on Shigella flexneri was 0.313 µg/mL (≈ 0.823 µM); with Staphylococcus aureus, 0.156 µg/mL (≈ 0.41 µM); in the assay on Escherichia coli it was 0.313 µg/mL (≈ 0.823 µM); in the assay on Bacillus subtilis it was 0.156 µg/mL (≈ 0.41 µM). The inhibitory constant (Ki) at Urease was 7500 nM.
